Measured values as given in patent US6127136A, “Detection of dioxin-like compounds by detection of transformed Ah receptor/ARNT complex” (Paracelsian, Inc., priority 1996, dated 2000).

How the values were obtained:
[1] = system: transformed DRE/AhR/ARNT complex; test: size exclusion column of DRE/AhR/ARNT complex followed by SDS-PAGE western blot; format: biochemical, guinea pig (hepatic cytosol)
Protocol: Size-exclusion column: 10 mL bed volume sephacryl S-100-HR (Sigma, St. Louis, Mo.) packed in Econopac column (Biorad cat. no. 732-1010), equilibrated in HEDG plus 200 mM NaCl. Column was hooked up to a peristaltic pump. Flow rate was 0.5 mL/min. The size exclusion column outlet was attached to a HPLC fluorimeter set at excitation 494 nm and emmission 520 nm to detect fluorescein. DRE used was F-ERD oligo (SEQ. ID. #4) and DRE-D oligo (SEQ. ID. #1) hybridized as described above. Cytosol was prepared as described above. Cytosol was dosed with 1:1000 v/v DMSO (-) or 1:1000 v/v 10 uM 2,3,7,8-tetrachlorodibenzo-p-dioxin in DMSO (+).
Samples were incubated for 2 hours at room temperature as described above to achieve transformation/binding events then put on ice. The entire A sample was loaded onto the Size Exclusion Column and chromatography developed at a flow rate of 0.5 ml/min. Eluant fractions were collected at 2 min intervals (1 mL/fraction). The protocol was repeated for samples B,C,D.
The fluorimeter readings went offscale and usable readings for the fluorescent DRE were not possible. 200 uL subaliquots of fractions 3-10 were submitted to Sodium Dodecyl Sulfate--PolyAcrylamide Gel Electrophoresis (SDS-PAGE) followed by western blotting. Blots of fractions from samples A and B were probed with anti-ARNT (1:200) and anti-rabbit/alkaline phosphatase (1: 1000) and developed with BCIP/NBT. […]

[2] = molecular target: transformed Ah receptor/ARNT complex (Cavia porcellus, UniProt Q6J287); test: sandwich ELISA detecting transformed Ah receptor/ARNT complex, DRE and anti-ARNT dilutions; format: biochemical, guinea pig (hepatic cytosol); set-up: from tissue; host or cells: hepatic cytosol of male Hartley guinea pigs (animals from Cornell Research Animal Resources)
Protocol: Working dilution of anti-ARNT was diluted (1:200, 50 uL in 10 mL) in PBS plus 0.02% tween 20 plus 0.1% bovine serum albumin. Working dilution of anti-Rabbit/alkaline phosphatase (Sigma, St. Louis, Mo.) was prepared by diluting 20 uL into 20 mL PBS plus 0.02% tween 20 plus 0.1% bovine serum albumin to make a 1:1000 dilution. Diethanolamine buffer was prepared by dissolving 0.4 g Magnesium chloride hexahydrate, 0.8 g sodium azide, 338 mL diethanolamine in 2.5 L deionized water, adjusting pH to 9.8 with concentrated HCl, and adjusting volume to 4 liters. PnPP stock was prepared fresh by dissoving two 15 mg tablets of para-nitro phenyl phosphate (Sigma, St. Louis, Mo.) in 20 mL diethanolamine buffer.
B-DRE (sequence ID 2) and DRE-D (sequence ID 1) were hybridized as described above. Cytosol was prepared as described above. Thirty five mL of cytosol was thawed and pooled. The cytosol was divided into two 17 mL aliquots and treated with either 17 uL DMSO, sample labled (-) or 17 uL 10 uM TCDD in DMSO with the sample labled (+). DMSO-treated cytosol (1700 uL) was mixed with 10.6 uL hybridized DRE (sample labeled B-). TCDD-treated cytosol (1700 uL) was mixed with 10.6 uL hybridized DRE (sample labeled B+).
A neutravidin-coated 96 well ELISA plate (Pierce), with the standard 12×8 well matrix, labeled 1-12 horizontally and A-H vertically, was warmed to room temperature. DMSO treated cytosol (-) was put in wells A2-A12 x D2-D12 at 200 uL per well. TCDD treated cytosol (+) was put in wells E2-E12 x H2-H12 at 200 uL per well. Untreated Cytosol plus DRE sample (B-), 400 uL per well, was put in wells A1-D1. Treated Cytosol sample plus DRE (13+), 400 uL per well, was put in wells […]. The Untreated cytosol plus DRE sample (B-) and treated cytosol sample plus DRE (B+) were then serially diluted 1:1 across the plate, resulting in a serial dilution of DRE in either 200 uL treated or 200 uL untreated cytosol. The last column (A12H12) contained 400 uL, so 200 uL of that was discarded. Highest dilution of DRE in column A1-H1 was arbitrarily called 1, with the other dilutions labeled 0.5, 0.25 . . . 0.0005 respectively.
The ELISA plate was incubated with gentle rocking for 2 hours to allow the transformaton of Ah receptor, binding of Ah receptor with ARNT, and binding of the Ah receptor/ARNT complex to the biotinylated DRE, and binding of the biotinylated DRE to the neutravidin bound to the ELISA plate.
After 2 hours the plate was washed 3 times with 300 uL PBS plus 0.02% tween 20 and 400 uL of the working dilution of anti-ARNT added to rows A1-A12 and E1-E12 of the ELISA plate. 200 uL of PBS plus 0.02% tween 20 plus 0.1% bovine serum albumin was added to the remaining wells. […] After 2 hours the plate was washed as before and working dilution (1:1000) of anti-rabbit/alkaline phosphatase conjugate was added to all wells. The plate was incubated for a further 1 hour at room temperature with gentle rocking and then washed as before. PnPP stock was added to each well (200 uL) and the plate was incubated for 1 hour, at which time it was read at 405 nm in an ELISA plate reader and milli O.D. recorded.

Chain of transformed Ah receptor/ARNT complex (Q6J287 1-846): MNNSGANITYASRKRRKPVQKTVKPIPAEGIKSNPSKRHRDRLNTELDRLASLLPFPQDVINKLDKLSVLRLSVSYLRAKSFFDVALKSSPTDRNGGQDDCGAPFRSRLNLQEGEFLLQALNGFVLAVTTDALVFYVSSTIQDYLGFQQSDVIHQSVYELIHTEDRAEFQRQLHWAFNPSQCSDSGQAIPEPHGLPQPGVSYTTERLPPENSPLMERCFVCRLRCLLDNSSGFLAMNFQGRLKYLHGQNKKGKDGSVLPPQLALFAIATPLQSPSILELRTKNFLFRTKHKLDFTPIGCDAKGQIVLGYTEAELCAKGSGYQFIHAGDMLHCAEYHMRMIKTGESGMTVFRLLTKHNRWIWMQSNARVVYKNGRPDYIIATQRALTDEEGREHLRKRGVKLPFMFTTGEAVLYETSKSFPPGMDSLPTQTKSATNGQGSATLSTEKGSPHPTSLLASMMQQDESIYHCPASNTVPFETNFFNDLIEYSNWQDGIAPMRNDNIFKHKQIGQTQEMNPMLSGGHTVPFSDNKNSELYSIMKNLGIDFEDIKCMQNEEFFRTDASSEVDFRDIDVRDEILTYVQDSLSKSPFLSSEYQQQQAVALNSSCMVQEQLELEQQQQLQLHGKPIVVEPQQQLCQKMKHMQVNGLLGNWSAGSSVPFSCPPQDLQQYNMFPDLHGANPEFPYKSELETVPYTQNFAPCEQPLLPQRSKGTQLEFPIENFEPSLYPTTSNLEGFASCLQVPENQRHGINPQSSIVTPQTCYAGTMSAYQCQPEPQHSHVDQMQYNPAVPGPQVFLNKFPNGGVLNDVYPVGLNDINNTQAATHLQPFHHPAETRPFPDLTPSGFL
Chain of transformed Ah receptor/ARNT complex (Q0WXX3 1-790 partner): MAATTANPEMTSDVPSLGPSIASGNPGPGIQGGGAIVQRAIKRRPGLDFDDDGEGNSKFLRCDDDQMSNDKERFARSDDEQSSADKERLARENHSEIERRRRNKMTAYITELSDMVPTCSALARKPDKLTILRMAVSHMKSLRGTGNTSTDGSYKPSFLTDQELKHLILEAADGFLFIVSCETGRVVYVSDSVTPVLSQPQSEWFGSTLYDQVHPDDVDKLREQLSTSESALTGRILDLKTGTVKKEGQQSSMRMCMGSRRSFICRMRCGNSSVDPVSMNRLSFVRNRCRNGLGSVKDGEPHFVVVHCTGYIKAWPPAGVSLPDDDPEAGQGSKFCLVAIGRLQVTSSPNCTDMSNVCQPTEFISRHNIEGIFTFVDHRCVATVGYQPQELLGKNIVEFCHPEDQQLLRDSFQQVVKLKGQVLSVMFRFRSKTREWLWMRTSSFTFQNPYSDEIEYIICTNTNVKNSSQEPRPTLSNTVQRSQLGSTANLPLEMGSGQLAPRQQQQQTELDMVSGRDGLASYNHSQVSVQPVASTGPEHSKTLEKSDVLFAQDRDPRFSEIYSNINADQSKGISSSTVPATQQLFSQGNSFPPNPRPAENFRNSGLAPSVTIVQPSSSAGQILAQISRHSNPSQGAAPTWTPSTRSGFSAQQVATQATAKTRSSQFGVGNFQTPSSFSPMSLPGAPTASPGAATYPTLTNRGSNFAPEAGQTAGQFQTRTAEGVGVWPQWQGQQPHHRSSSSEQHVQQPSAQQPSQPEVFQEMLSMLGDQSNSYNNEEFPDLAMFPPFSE

In the case of `Clc1cc2c(cc1Cl)Oc1cc(Cl)c(Cl)cc1O2` [TCDD, 2,3,7,8-tetrachlorodibenzo-p-dioxin], the “ARNT band in size exclusion fraction 3” value ([1]; sample B (TCDD) vs sample A (DMSO), anti-ARNT blot) is reported as “showed a band at the size of ARNT (circa 97 kD) that was absent in fraction 3 of sample A”, the “rabbit IgG light chain (anti-ARNT) band in size exclusion fraction 5” value ([1]; sample D (TCDD) vs sample C (DMSO), anti-rabbit blot) is reported as “showed a band at the size of rabbit IgG light chain (circa 25 kD) that was absent in fraction 5 of sample C” and the “response in sandwich ELISA” value ([2]; Example 7 conclusion) is reported as “gives a differential response”. The “O.D. at 405 nm” value ([2]; anti-ARNT dilution 0.000625, DRE dilution 0.002, TCDD (+)) was 463 milli O.D, the “O.D. at 405 nm” value ([2]; anti-ARNT dilution 0.000625, DRE dilution 0.004, TCDD (+)) was 595 milli O.D and the “O.D. at 405 nm” value ([2]; anti-ARNT dilution 0.000625, DRE dilution 0.008, TCDD (+)) was 726 milli O.D. The “O.D. at 405 nm” value ([2]; anti-ARNT dilution 0.000625, DRE dilution 0.016, TCDD (+)) was 639 milli O.D, the “O.D. at 405 nm” value ([2]; anti-ARNT dilution 0.000625, DRE dilution 0.031, TCDD (+)) was 562 milli O.D and the “O.D. at 405 nm” value ([2]; anti-ARNT dilution 0.000625, DRE dilution 0.063, TCDD (+)) was 480 milli O.D. For the same molecule, the “O.D. at 405 nm” value ([2]; anti-ARNT dilution 0.000625, DRE dilution 0.125, TCDD (+)) was 411 milli O.D, the “O.D. at 405 nm” value ([2]; anti-ARNT dilution 0.000625, DRE dilution 0.25, TCDD (+)) was 392 milli O.D and the “O.D. at 405 nm” value ([2]; anti-ARNT dilution 0.000625, DRE dilution 0.5, TCDD (+)) was 393 milli O.D. For the same molecule, the “O.D. at 405 nm” value ([2]; anti-ARNT dilution 0.000625, DRE dilution 1, TCDD (+)) was 408 milli O.D, the “O.D. at 405 nm” value ([2]; anti-ARNT dilution 0.000625, DRE dilution 1E-03, TCDD (+)) was 442 milli O.D and the “O.D. at 405 nm” value ([2]; anti-ARNT dilution 0.000625, DRE dilution 5E-04, TCDD (+)) was 480 milli O.D. For the same molecule, the “O.D. at 405 nm” value ([2]; anti-ARNT dilution 0.00125, DRE dilution 0.002, TCDD (+)) was 595 milli O.D, the “O.D. at 405 nm” value ([2]; anti-ARNT dilution 0.00125, DRE dilution 0.004, TCDD (+)) was 932 milli O.D and the “O.D. at 405 nm” value ([2]; anti-ARNT dilution 0.00125, DRE dilution 0.008, TCDD (+)) was 1070 milli O.D. The “O.D. at 405 nm” value ([2]; anti-ARNT dilution 0.00125, DRE dilution 0.016, TCDD (+)) was 916 milli O.D, the “O.D. at 405 nm” value ([2]; anti-ARNT dilution 0.00125, DRE dilution 0.031, TCDD (+)) was 767 milli O.D and the “O.D. at 405 nm” value ([2]; anti-ARNT dilution 0.00125, DRE dilution 0.063, TCDD (+)) was 537 milli O.D. For the same molecule, the “O.D. at 405 nm” value ([2]; anti-ARNT dilution 0.00125, DRE dilution 0.125, TCDD (+)) was 487 milli O.D, the “O.D. at 405 nm” value ([2]; anti-ARNT dilution 0.00125, DRE dilution 0.25, TCDD (+)) was 406 milli O.D and the “O.D. at 405 nm” value ([2]; anti-ARNT dilution 0.00125, DRE dilution 0.5, TCDD (+)) was 393 milli O.D. The “O.D. at 405 nm” value ([2]; anti-ARNT dilution 0.00125, DRE dilution 1, TCDD (+)) was 387 milli O.D, the “O.D. at 405 nm” value ([2]; anti-ARNT dilution 0.00125, DRE dilution 1E-03, TCDD (+)) was 484 milli O.D and the “O.D. at 405 nm” value ([2]; anti-ARNT dilution 0.00125, DRE dilution 5E-04, TCDD (+)) was 498 milli O.D. The “O.D. at 405 nm” value ([2]; anti-ARNT dilution 0.0025, DRE dilution 0.002, TCDD (+)) was 922 milli O.D, the “O.D. at 405 nm” value ([2]; anti-ARNT dilution 0.0025, DRE dilution 0.004, TCDD (+)) was 1281 milli O.D and the “O.D. at 405 nm” value ([2]; anti-ARNT dilution 0.0025, DRE dilution 0.008, TCDD (+)) was 1682 milli O.D. The “O.D. at 405 nm” value ([2]; anti-ARNT dilution 0.0025, DRE dilution 0.016, TCDD (+)) was 1486 milli O.D, the “O.D. at 405 nm” value ([2]; anti-ARNT dilution 0.0025, DRE dilution 0.031, TCDD (+)) was 1125 milli O.D and the “O.D. at 405 nm” value ([2]; anti-ARNT dilution 0.0025, DRE dilution 0.063, TCDD (+)) was 804 milli O.D. The “O.D. at 405 nm” value ([2]; anti-ARNT dilution 0.0025, DRE dilution 0.125, TCDD (+)) was 608 milli O.D, the “O.D. at 405 nm” value ([2]; anti-ARNT dilution 0.0025, DRE dilution 0.25, TCDD (+)) was 532 milli O.D and the “O.D. at 405 nm” value ([2]; anti-ARNT dilution 0.0025, DRE dilution 0.5, TCDD (+)) was 544 milli O.D. The “O.D. at 405 nm” value ([2]; anti-ARNT dilution 0.0025, DRE dilution 1, TCDD (+)) was 585 milli O.D, the “O.D. at 405 nm” value ([2]; anti-ARNT dilution 0.0025, DRE dilution 1E-03, TCDD (+)) was 680 milli O.D and the “O.D. at 405 nm” value ([2]; anti-ARNT dilution 0.0025, DRE dilution 5E-04, TCDD (+)) was 722 milli O.D. For the same molecule, the “O.D. at 405 nm” value ([2]; anti-ARNT dilution 0.005, DRE dilution 0.002, TCDD (+)) was 1524 milli O.D, the “O.D. at 405 nm” value ([2]; anti-ARNT dilution 0.005, DRE dilution 0.004, TCDD (+)) was 2029 milli O.D and the “O.D. at 405 nm” value ([2]; anti-ARNT dilution 0.005, DRE dilution 0.008, TCDD (+)) was 2558 milli O.D. The “O.D. at 405 nm” value ([2]; anti-ARNT dilution 0.005, DRE dilution 0.016, TCDD (+)) was 2122 milli O.D, the “O.D. at 405 nm” value ([2]; anti-ARNT dilution 0.005, DRE dilution 0.031, TCDD (+)) was 1706 milli O.D and the “O.D. at 405 nm” value ([2]; anti-ARNT dilution 0.005, DRE dilution 0.063, TCDD (+)) was 1202 milli O.D. The “O.D. at 405 nm” value ([2]; anti-ARNT dilution 0.005, DRE dilution 0.125, TCDD (+)) was 963 milli O.D, the “O.D. at 405 nm” value ([2]; anti-ARNT dilution 0.005, DRE dilution 0.25, TCDD (+)) was 777 milli O.D and the “O.D. at 405 nm” value ([2]; anti-ARNT dilution 0.005, DRE dilution 0.5, TCDD (+)) was 765 milli O.D. The “O.D. at 405 nm” value ([2]; anti-ARNT dilution 0.005, DRE dilution 1, TCDD (+)) was 771 milli O.D, the “O.D. at 405 nm” value ([2]; anti-ARNT dilution 0.005, DRE dilution 1E-03, TCDD (+)) was 1070 milli O.D and the “O.D. at 405 nm” value ([2]; anti-ARNT dilution 0.005, DRE dilution 5E-04, TCDD (+)) was 1191 milli O.D.
